Assay results: patent US20150209315A1 (Cumberland Pharmaceuticals, priority 2009, published 2015)

What was measured:
Format in all cases: in vivo, human
[1] = system: patients undergoing orthopedic surgical procedures; assay: Example 3: adverse events
Experimental: Patients were evaluated and compared for morphine requirements between the active doses and placebo using analysis of variance and covariance procedures at an overall alpha level of 0.05. Secondary efficacy parameters were also evaluated and compared among the treatment groups using appropriate statistical methods described in the statistical analysis section of the protocol. For the adverse events, instead of using an unadjusted Chi-square test and a Cochran-Mantel-Haenszel test adjusted for center to compare treatment groups with respect to the numbers of patients reporting AEs, a Fisher's exact test was used to compare treatment groups for any AE that was reported by five or more patients.

[2] = system: fever in hospitalized patients; assay: Clinical trials of intravenous ibuprofen for fever
[3] = system: post-operative adult patients; assay: Example 1: patient self-assessment of pain, VAS with movement; design: key to VAS Score measured with Movement (median): VAS 0-10: 0 = no pain, 10 = intense pain; conditions: 400 mg
Experimental: Pain was measured by the patient's self-assessment using a Visual Analog Scale (VAS) from 0-10 with 0 being no pain and 10 being intense pain. This was measured both at rest and with movement. […] […] To account for the missing pain assessments, two missing value approaches as described in the statistical analysis plan were used to impute values. To determine the difference in overall pain at differing time-points, the area under the VAS pain curve during the first 24 hours, between 6 and 24 hours and between 12 and 24 hours were analyzed.

Structure (SMILES): CC(C)Cc1ccc(C(C)C(=O)O)cc1 (stereo not drawn) [Ibuprofen, 2-(4-isobutylphenyl) propionic acid]
- deaths ([1]; 800 mg): no deaths reported
- incidence of serious adverse events vs placebo ([1]; 800 mg): no statistically significant difference
- patients that experienced dyspepsia (treatment-emergent adverse events) ([1]; 800 mg vs placebo): significantly more patients in the placebo group
- patients that experienced vomiting (treatment-emergent adverse events) ([1]; 800 mg vs placebo): significantly more patients in the intravenous ibuprofen group
- treated patients with reduced fever ([2]; at 4 hours): 100%
- placebo-treated vs IV Ibuprofen treated patients with uncontrolled fever ([2]; at 24 hours): ~4 times
- reduction in temperature ([2]; critically ill patients, 48-hour study period): Significant reduction in temperature was maintained
- acetaminophen requirement and fever control vs acetaminophen alone ([2]; critically ill patients, subset analysis): required less acetaminophen and had better fever control
- Rapid fever reduction seen as fast as ([2]; malaria patients): 30 min
- patients with significant fever reduction ([2]; phase 3 clinical trial, within 4 hours, vs 32% with placebo): 77%
- VAS Score measured with Movement (median) ([3]; EEP, 1-Hour): 7.5
- VAS Score measured with Movement, % Reduction vs Placebo ([3]; EEP, 1-Hour): 6.2%
- VAS Score measured with Movement (median) ([3]; EEP, 2-Hour): 7.2
- VAS Score measured with Movement, % Reduction vs Placebo ([3]; EEP, 2-Hour): −1.4%
- VAS Score measured with Movement (median) ([3]; EEP, 3-Hour): 6.2
- VAS Score measured with Movement, % Reduction vs Placebo ([3]; EEP, 3-Hour): −3.3%
- VAS Score measured with Movement (median) ([3]; EEP, 6-Hour): 5.7
- VAS Score measured with Movement, % Reduction vs Placebo ([3]; EEP, 6-Hour): −14.0%
- VAS Score measured with Movement (median) ([3]; EEP, 9-Hour): 4.8
- VAS Score measured with Movement, % Reduction vs Placebo ([3]; EEP, 9-Hour): 4.0%
- VAS Score measured with Movement (median) ([3]; EEP, 12-Hour): 4.5
- VAS Score measured with Movement, % Reduction vs Placebo ([3]; EEP, 12-Hour): 10.0%
- VAS Score measured with Movement (median) ([3]; EEP, 15-Hour): 4.0
- VAS Score measured with Movement, % Reduction vs Placebo ([3]; EEP, 15-Hour): 20.0%
- VAS Score measured with Movement (median) ([3]; EEP, 18-Hour): 4.3
- VAS Score measured with Movement, % Reduction vs Placebo ([3]; EEP, 18-Hour): 14.0%
- VAS Score measured with Movement (median) ([3]; EEP, 21-Hour): 4.0
- VAS Score measured with Movement, % Reduction vs Placebo ([3]; EEP, 21-Hour): 20.0%
- VAS Score measured with Movement (median) ([3]; EEP, 24-Hour): 5.0
- VAS Score measured with Movement, % Reduction vs Placebo ([3]; EEP, 24-Hour): −13.6%
- VAS Score measured with Movement (median) ([3]; EEP, 27-Hour): 4.6
- VAS Score measured with Movement, % Reduction vs Placebo ([3]; EEP, 27-Hour): −2.2%
- VAS Score measured with Movement (median) ([3]; EEP, 30-Hour): 4.0
- VAS Score measured with Movement, % Reduction vs Placebo ([3]; EEP, 30-Hour): 2.4%
- VAS Score measured with Movement (median) ([3]; EEP, 33-Hour): 3.9
- VAS Score measured with Movement, % Reduction vs Placebo ([3]; EEP, 33-Hour): −2.6%
- VAS Score measured with Movement (median) ([3]; EEP, 36-Hour): 3.6
- VAS Score measured with Movement, % Reduction vs Placebo ([3]; EEP, 36-Hour): 7.7%
- VAS Score measured with Movement (median) ([3]; EEP, 39-Hour): 3.1
- VAS Score measured with Movement, % Reduction vs Placebo ([3]; EEP, 39-Hour): 8.8%
- VAS Score measured with Movement (median) ([3]; EEP, 42-Hour): 3.3
- VAS Score measured with Movement, % Reduction vs Placebo ([3]; EEP, 42-Hour): 5.7%
- VAS Score measured with Movement (median) ([3]; EEP, 45 Hour): 3.3
- VAS Score measured with Movement, % Reduction vs Placebo ([3]; EEP, 45 Hour): −6.5%
- VAS Score measured with Movement (median) ([3]; EEP, 48-Hour): 3.2
- VAS Score measured with Movement, % Reduction vs Placebo ([3]; EEP, 48-Hour): −33.3%
- VAS Score measured with Movement (median) ([3]; ITT, 1-Hour): 7.5
- VAS Score measured with Movement, % Reduction vs Placebo ([3]; ITT, 1-Hour): 6.2%
- VAS Score measured with Movement (median) ([3]; ITT, 2-Hour): 7.4
- VAS Score measured with Movement, % Reduction vs Placebo ([3]; ITT, 2-Hour): −1.4%
- VAS Score measured with Movement (median) ([3]; ITT, 3-Hour): 6.3
- VAS Score measured with Movement, % Reduction vs Placebo ([3]; ITT, 3-Hour): 0.0%
- VAS Score measured with Movement (median) ([3]; ITT, 6-Hour): 5.7
- VAS Score measured with Movement, % Reduction vs Placebo ([3]; ITT, 6-Hour): 0.0%
- VAS Score measured with Movement (median) ([3]; ITT, 9-Hour): 4.7
- VAS Score measured with Movement, % Reduction vs Placebo ([3]; ITT, 9-Hour): 9.6%
- VAS Score measured with Movement (median) ([3]; ITT, 12-Hour): 4.5
- VAS Score measured with Movement, % Reduction vs Placebo ([3]; ITT, 12-Hour): 10.0%
- VAS Score measured with Movement (median) ([3]; ITT, 15-Hour): 3.9
- VAS Score measured with Movement, % Reduction vs Placebo ([3]; ITT, 15-Hour): 22.0%
- VAS Score measured with Movement (median) ([3]; ITT, 18-Hour): 4.3
- VAS Score measured with Movement, % Reduction vs Placebo ([3]; ITT, 18-Hour): 14.0%
- VAS Score measured with Movement (median) ([3]; ITT, 21-Hour): 4.1
- VAS Score measured with Movement, % Reduction vs Placebo ([3]; ITT, 21-Hour): 16.3%
- VAS Score measured with Movement (median) ([3]; ITT, 24-Hour): 4.6
- VAS Score measured with Movement, % Reduction vs Placebo ([3]; ITT, 24-Hour): −2.2%
- VAS Score measured with Movement (median) ([3]; ITT, 27 Hour): 4.6
- VAS Score measured with Movement, % Reduction vs Placebo ([3]; ITT, 27 Hour): −4.5%
- VAS Score measured with Movement (median) ([3]; ITT, 30-Hour): 4.0
- VAS Score measured with Movement, % Reduction vs Placebo ([3]; ITT, 30-Hour): 0.0%
- VAS Score measured with Movement (median) ([3]; ITT, 33-Hour): 3.8
- VAS Score measured with Movement, % Reduction vs Placebo ([3]; ITT, 33-Hour): 0.0%
